According to ChEMBL document CHEMBL4842373, “C1'-Branched acyclic nucleoside phosphonates mimicking adenosine monophosphate: Potent inhibitors of Trypanosoma brucei adenine phosphoribosyltransferase” (Eur J Med Chem, 2021):

Assay: Inhibition of Trypanosoma brucei adenine phosphoribosyltransferase expressed in Escherichia coli measured by spectrophotometric method
For `Nc1ncnc2c1ncn2C(COCP(=O)(O)O)C1CC1` (configuration not stated), the Ki was 5.84 µM. For `Nc1ncnc2c1ncn2[C@H](CCOCP(=O)(O)O)OCCO`, the Ki was 37.2 µM. `CO[C@H](COCP(=O)(O)O)n1cnc2c(N)ncnc21` showed a Ki of 9.88 µM. In the case of `C#CC(COCP(=O)(O)O)n1cnc2c(N)ncnc21` (configuration not stated), the Ki is reported as 26.7 µM. In the case of `Nc1ncnc2c1ncn2C(COCCP(=O)(O)O)OCCO` (configuration not stated), the Ki is reported as over 30 µM. `Nc1ncnc2c1ncn2C(CCP(=O)(O)O)OCCO` (configuration not stated) showed a Ki of over 30 µM. Compound `Nc1ncnc2c1ncn2C(CO)COCP(=O)(O)O` (configuration not stated) has a Ki of 19.7 µM. `Nc1ncnc2c1ncn2[C@@H](COCc1ccccc1)COCP(=O)(O)O` gave a Ki of over 30 µM. With `CO[C@@H](COCP(=O)(O)O)n1cnc2c(N)ncnc21` the Ki was over 30 µM. For `Nc1ncnc2c1ncn2C(COCP(=O)(O)O)C(F)(F)F` (configuration not stated), the Ki was over 30 µM. `C=CC(COCP(=O)(O)O)n1cnc2c(N)ncnc21` (configuration not stated) showed a Ki of 16.3 µM. Compound `CC(C)[C@H](COCP(=O)(O)O)n1cnc2c(N)ncnc21` has a Ki of 0.57 µM. For `Nc1ncnc2c1ncn2C(COCP(=O)(O)O)OCCO` (configuration not stated), the Ki was 6.1 µM. With `Nc1ncnc2c1ncn2C(CCOCP(=O)(O)O)OCCO` (configuration not stated) the Ki was 4.9 µM. `CC[C@H](COCP(=O)(O)O)n1cnc2c(N)ncnc21` gave a Ki of 3.18 µM. In the case of `CC(COCP(=O)(O)O)n1cnc2c(N)ncnc21` (configuration not stated), the Ki is reported as over 30 µM. `CC(C)[C@@H](COCP(=O)(O)O)n1cnc2c(N)ncnc21` showed a Ki of 17.5 µM. `CCO[C@@H](COCP(=O)(O)O)n1cnc2c(N)ncnc21` gave a Ki of over 30 µM. `Nc1ncnc2c1ncn2[C@@H](CCOCP(=O)(O)O)OCCO` showed a Ki of 1.56 µM. `Nc1ncnc2c1ncn2C(CCOCP(=O)(O)O)OCCCO` (configuration not stated) gave a Ki of 3.21 µM. `CCOC(COCP(=O)(O)O)n1cnc2c(N)ncnc21` (configuration not stated) gave a Ki of 3.95 µM. In the case of `Nc1ncnc2c1ncn2[C@H](CO)COCP(=O)(O)O`, the Ki is reported as 15.4 µM. For `CCC(COCP(=O)(O)O)n1cnc2c(N)ncnc21` (configuration not stated), the Ki was 11.8 µM. In the case of `COC(COCP(=O)(O)O)n1cnc2c(N)ncnc21` (configuration not stated), the Ki is reported as 13.1 µM. For `Nc1ncnc2c1ncn2[C@@H](COCP(=O)(O)O)C1CC1`, the Ki was 2.95 µM. Work on `CCO[C@H](COCP(=O)(O)O)n1cnc2c(N)ncnc21` yielded a Ki of 2.39 µM. Work on `Nc1ncnc2c1ncn2[C@H](COCc1ccccc1)COCP(=O)(O)O` yielded a Ki of 39 µM.
